The text below walks through data of patent US20120058999A1, “Substituted Tetrahydropyrrolopyrazine Compounds” (Gruenenthal GmbH, priority 2010, published 2012).

In one assay the target is T1, rat B1R (Rattus norvegicus, UniProt P97583).
T1 construct: expressed in transfected cells; host or cells: CHO K1 cells (stably transfected)
T1 sequence (P97583 1-337): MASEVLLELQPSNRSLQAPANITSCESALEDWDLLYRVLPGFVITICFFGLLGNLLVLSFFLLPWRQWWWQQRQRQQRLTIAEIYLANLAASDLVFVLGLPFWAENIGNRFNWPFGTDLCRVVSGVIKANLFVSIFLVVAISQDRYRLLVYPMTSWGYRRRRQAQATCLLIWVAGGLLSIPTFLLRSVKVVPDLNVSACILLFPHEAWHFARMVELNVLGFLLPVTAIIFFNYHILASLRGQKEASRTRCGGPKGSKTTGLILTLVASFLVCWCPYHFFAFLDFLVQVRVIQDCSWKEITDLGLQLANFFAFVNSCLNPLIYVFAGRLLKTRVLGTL
In words: Functional investigation on the bradykinin 1 receptor, cell-based fluorescent calcium-mobilization assay (FLIPR), rat. Conditions: 10 μM test substance; CHO K1 cells transfected with rat B1R gene; agonist Des-Arg9-bradykinin at EC80; % of maximum achievable inhibition. Here is the method: (§1) The agonistic or antagonistic action of substances can be quantified on the bradykinin 1 receptor (B1R) of the human and rat species with ectopically expressing cell lines (CHO K1 cells) and with the aid of a Ca2+-sensitive dye (Fluo-4) using a fluorescent imaging plate reader (FLIPR). The value in % activation is based on the Ca2+ signal after addition of Lys-Des-Arg9 bradykinin (0.5 nM) or Des-Arg9 bradykinin (100 nM). Antagonists lead to a suppression of the Ca2+ influx following administration of the agonist. The % inhibition in comparison with the maximum achievable inhibition is indicated.
(§2) The agonistic or antagonistic action of substances can be determined on the bradykinin 1 receptor (B1R) of humans and rats by means of a cell-based fluorescent calcium-mobilization assay. According to this assay agonist-induced increase of intracellular free Ca^2+ is quantified by means of a Ca^2+-sensitive dye (Fluo-4 type, Molecular Probes Europe BV, Leiden, Netherlands), in a Fluorescent Imaging Plate Reader (FLIPR, Molecular Devices, Sunnyvale, USA) and/or the Novostar (BMG Labtech GmbH, Offenburg, Germany).
(§3) Chinese hamster ovary cells (CHO K1 cells), which are stably transfected with the human B1R gene (hB1R cells), or with the B1R gene of rats (rB1R cells) are used. For functional investigations these cells are seeded into black 96-well plates with a clear bottom (BD Biosciences, Heidelberg, Germany or Greiner, Frickenhausen, Germany) in a density of 20,000-35,000 cells/well. The cells are incubated overnight in a humidified atmosphere at 37° C. and 5% CO2 in culture medium (hB1R cells: Nutrient Mixture Ham's F12, Gibco Invitrogen GmbH, Karlsruhe, Germany or DMEM, Sigma-Aldrich, Taufkirchen, Germany; rB1R cells: D-MEM/F12, Gibco Invitrogen GmbH, Karlsruhe, Germany) with 10 vol. % FBS (foetal bovine serum, Gibco Invitrogen GmbH, Karlsruhe, Germany). On the following day the cells are loaded with the Ca^2+-sensitive dye Fluo-4-AM (Molecular Probes Europe BV, Leiden, Netherlands):
(§4) Method A: The medium of the cells is removed and cell plates are incubated with loading solution, which contains 2.13 μM Fluo-4-AM, 2.5 mM probenecid (Sigma-Aldrich, Taufkirchen, Germany), and 10 mM HEPES (Sigma-Aldrich, Taufkirchen, Germany) in HBSS buffer (Hank's buffered saline solution, Gibco Invitrogen GmbH, Karlsruhe, Germany) for 60 minutes at 37° C. After the plates are washed twice with HBSS buffer, HBSS buffer supplemented 0.1% BSA (bovine serum albumin; Sigma-Aldrich, Taufkirchen, Germany), 5.6 mM glucose and 0.05% gelatine (Merck KGaA, Darmstadt, Germany) is added. Cell plates are incubated for at least 20 minutes in the dark at room temperature before they are used for the Ca^2+ measurement in the FLIPR or Novostar. Method B: The plates are washed with buffer A (15 mM HEPES, 80 mM NaCl, 5 mM KCl, 1.2 mM CaCl2, 0.7 mM MgSO4, 2 mg/ml glucose, 2.5 mM probenecid) and subsequently loaded with buffer A containing 2.4 μM Fluo-4-AM and 0.025% pluronic F127 (Sigma-Aldrich, Taufkirchen, Germany) for 60 minutes at 37° C. Cell plates are washed twice with buffer A. Then, buffer A supplemented with 0.05% BSA and 0.05% gelatine is added and cell plates are incubated in the dark at room temperature for at least 20 minutes before measurement in the FLIPR or Novostar is started.
(§5) The Ca^2+-dependent fluorescence is measured both before and after the addition of substances (λex=488 nm, λem=540 nm). For quantification of the effect the highest fluorescence intensity (FC, fluorescence counts) over time is given.
(§6) The FLIPR protocol consists of two substance additions, done within the instrument while continuously monitoring the Ca^2+-dependent fluorescence at 540 nm. When the Novostar was used, one addition had to be done outside the instrument. First of all test substances (10 μM) are pipetted onto the cells and the intracellular Ca^2+ rise is compared with the control (hB1R: Lys-Des-Arg9-bradykinin >=50 nM; rB1R: Des-Arg9-bradykinin >=1 μM). […]

For another assay, the target named is T2, human B1R (Homo sapiens, UniProt P46663).
T2 construct: expressed in transfected cells; host or cells: CHO K1 cells (stably transfected)
T2 sequence (P46663 1-353): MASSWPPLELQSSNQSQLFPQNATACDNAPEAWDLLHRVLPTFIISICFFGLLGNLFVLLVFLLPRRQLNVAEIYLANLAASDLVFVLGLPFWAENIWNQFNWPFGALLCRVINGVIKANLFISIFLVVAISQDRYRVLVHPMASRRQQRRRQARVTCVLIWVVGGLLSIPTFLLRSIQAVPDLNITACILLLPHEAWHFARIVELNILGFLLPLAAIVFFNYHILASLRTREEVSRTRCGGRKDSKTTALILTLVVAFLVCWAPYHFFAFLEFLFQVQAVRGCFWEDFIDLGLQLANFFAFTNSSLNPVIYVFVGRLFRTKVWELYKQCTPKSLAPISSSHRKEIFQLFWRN
The experiment in a line: Functional investigation on the bradykinin 1 receptor, cell-based fluorescent calcium-mobilization assay (FLIPR), human. Conditions: 10 μM test substance; CHO K1 cells transfected with human B1R gene; agonist Lys-Des-Arg9-bradykinin at EC80; % of maximum achievable inhibition. Here is the method:
as §1, §2, §3, §4, §5, §6

One may read the inhibition as the relative decrease from the control value, in per cent.

As to `COc1cc(C)c(S(=O)(=O)N2CCn3cccc3C2CCCC(=O)N[C@H]2CCC[C@@H](N3CCN(C)CC3)C2)c(C)c1` (relative stereo) [CC-07, 4-[2-[(4-Methoxy-2,6-dimethyl-phenyl)sulfonyl]-1,2,3,4-tetrahydro-pyrrolo[1,2-a]pyrazin-1-yl]-N-[cis-3-(4-methyl-piperazin-1-yl)-cyclohexyl]-butyramide], the inhibition at 10 µM on rat B1R is 101%; at human B1R, 86%.

As to `CN1CCN([C@@H]2CCC[C@H](NC(=O)CCC3c4cccn4CCN3S(=O)(=O)c3cccc(C(F)(F)F)c3)C2)CC1` (relative stereo) [CC-10, N-[cis-3-(4-Methyl-piperazin-1-yl)-cyclohexyl]-3-[2-[[3-(trifluoromethyl)phenyl]sulfonyl]-1,2,3,4-tetrahydro-pyrrolo[1,2-a]pyrazin-1-yl]-propionamide], the figures for the inhibition at 10 µM at rat B1R and at human B1R were 36% and 29%, respectively.

Consider `COc1cc(C)c(S(=O)(=O)N2CCn3cccc3C2COCC(=O)N(C)C2CC(N3CCN(C)CC3)C2)c(C)c1` (stereo not shown) [CC-58, 2-[[2-[(4-Methoxy-2,6-dimethyl-phenyl)sulfonyl]-1,2,3,4-tetrahydro-pyrrolo[1,2-a]pyrazin-1-yl]-methoxy]-N-methyl-N-[3-(4-methyl-piperazin-1-yl)-cyclobutyl]-acetamide], for which the inhibition at 10 µM was 88% at rat B1R and 38% on human B1R.

Consider `COc1cc(C)c(S(=O)(=O)N2CCn3cccc3C2CCCC(=O)N(C)C2CC(N3CCN(C)CC3)C2)c(C)c1` (stereo not shown) [CC-59, 4-[2-[(4-Methoxy-2,6-dimethyl-phenyl)sulfonyl]-1,2,3,4-tetrahydro-pyrrolo[1,2-a]pyrazin-1-yl]-N-methyl-N-[3-(4-methyl-piperazin-1-yl)-cyclobutyl]-butyramide], for which the inhibition at 10 µM on rat B1R was 97%; on human B1R, 80%.

Turning to `COc1ccc2cc(S(=O)(=O)N3CCn4cccc4C3CC(=O)N(C)C3CC(N4CCN(C)CC4)C3)ccc2c1` (stereo not shown) [CC-60, 2-[2-[(6-Methoxy-naphthalen-2-yl)sulfonyl]-1,2,3,4-tetrahydro-pyrrolo[1,2-a]pyrazin-1-yl]-N-methyl-N-[3-(4-methyl-piperazin-1-yl)-cyclobutyl]-acetamide], the figures for the inhibition at 10 µM at rat B1R and on human B1R were 106% and 99%, respectively.

As for `CN1CCN(C2CC(N(C)C(=O)CCC3c4cccn4CCN3S(=O)(=O)c3cccc(C(F)(F)F)c3)C2)CC1` (stereo not shown) [CC-61, N-Methyl-N-[3-(4-methyl-piperazin-1-yl)-cyclobutyl]-3-[2-[[3-(trifluoromethyl)phenyl]sulfonyl]-1,2,3,4-tetrahydro-pyrrolo[1,2-a]pyrazin-1-yl]-propionamide], the inhibition at 10 µM on rat B1R was 14%; at human B1R, 12%.

Take `COc1cc(C)c(S(=O)(=O)N2CCn3cccc3C2COCC(=O)N(C)[C@H]2CCC[C@@H](N3CCN(C)CC3)C2)c(C)c1` (stereo partly drawn) [SC-01, 2-[[2-[(4-Methoxy-2,6-dimethyl-phenyl)sulfonyl]-1,2,3,4-tetrahydro-pyrrolo[1,2-a]pyrazin-1-yl]-methoxy]-N-methyl-N-[(1S,3R)-3-(4-methyl-piperazin-1-yl)-cyclohexyl]-acetamide]: the inhibition at 10 µM worked out at 103% at rat B1R and 100% at human B1R.

Turning to `Cc1cccc(Cl)c1S(=O)(=O)N1CCn2cccc2C1COCC(=O)N(C)[C@H]1CCC[C@@H](N2CCN(C)CC2)C1` (stereo partly drawn) [SC-02, 2-[[2-[(2-Chloro-6-methyl-phenyl)sulfonyl]-1,2,3,4-tetrahydro-pyrrolo[1,2-a]pyrazin-1-yl]-methoxy]-N-methyl-N-[(1S,3R)-3-(4-methyl-piperazin-1-yl)-cyclohexyl]-acetamide], the figures for the inhibition at 10 µM at rat B1R and on human B1R were 105% and 100%, respectively.

Regarding `Cc1cc(S(=O)(=O)N2CCn3cccc3C2CCC(=O)N(C)[C@H]2CCC[C@@H](N3CCN(C)CC3)C2)c(C)cc1Cl` (stereo partly drawn) [SC-03, 3-[2-[(4-Chloro-2,5-dimethyl-phenyl)sulfonyl]-1,2,3,4-tetrahydro-pyrrolo[1,2-a]pyrazin-1-yl]-N-methyl-N-[(1S,3R)-3-(4-methyl-piperazin-1-yl)-cyclohexyl]-propionamide], the inhibition at 10 µM on rat B1R came to 61%; at human B1R it was 95%.

In the case of `COc1cc(C)c(S(=O)(=O)N2CCn3cccc3C2COCC(=O)N(C)C2CCC(N3CCN(C)CC3)CC2)c(C)c1` (stereo not shown) [SC-05, 2-[[2-[(4-Methoxy-2,6-dimethyl-phenyl)sulfonyl]-1,2,3,4-tetrahydro-pyrrolo[1,2-a]pyrazin-1-yl]-methoxy]-N-methyl-N-[4-(4-methyl-piperazin-1-yl)-cyclohexyl]-acetamide], the inhibition at 10 µM on rat B1R amounted to 100%; on human B1R, 101%.

Take `COc1cc(C)c(S(=O)(=O)N2CCn3c(C)ccc3C2COCC(=O)N(C)[C@H]2CCC[C@@H](N3CCN(C)CC3)C2)c(C)c1` (stereo partly drawn) [SC-06, 2-[[2-[(4-Methoxy-2,6-dimethyl-phenyl)sulfonyl]-6-methyl-1,2,3,4-tetrahydro-pyrrolo[1,2-a]pyrazin-1-yl]-methoxy]-N-methyl-N-[(1S,3R)-3-(4-methyl-piperazin-1-yl)-cyclohexyl]-acetamide]: the results for the inhibition at 10 µM on rat B1R and on human B1R were 110% and 97%, respectively.
